Assay results from ChEMBL document CHEMBL5252552, “Defined concatenated α6α1β3γ2 GABAA receptor constructs reveal dual action of pyrazoloquinolinone allosteric modulators” (Bioorg Med Chem, 2019).

Columns and labels:
[1] = molecular target: T1, Gamma-aminobutyric acid receptor subunit alpha-1/beta-3/gamma-2 (Rattus norvegicus) (UniProt P18508+P62813+P63079); assay: Positive allosteric modulation of rat recombinant GABAA alpha1beta3gamma2 receptor expressed in Xenopus laevis oocytes assessed as maximal efficacy at -80 mV holding potential at 100 nM in presence of GABA EC1 to 1.5 by two-electrode voltage-clamp assay; assay type: cell-based; details: Oocyte
[2] = molecular target: T2, Gamma-aminobutyric acid receptor subunit alpha-1/alpha-6/beta-3/gamma-2 (Rattus norvegicus) (UniProt P18508+P30191+P62813+P63079); assay: Positive allosteric modulation of rat recombinant GABAA gamma2beta3alpha1-beta3alpha6 receptor expressed in Xenopus laevis oocytes assessed as maximal efficacy at -80 mV holding potential at 100 nM in presence of GABA EC1 to 1.5 by two-electrode voltage-clamp assay; assay type: cell-based; details: Oocyte, filed as positive allosteric modulator
[3] = molecular target: T2, Gamma-aminobutyric acid receptor subunit alpha-1/alpha-6/beta-3/gamma-2 (Rattus norvegicus); assay: Positive allosteric modulation of rat recombinant GABAA gamma2beta3alpha1-beta3alpha6 receptor expressed in Xenopus laevis oocytes assessed as maximal efficacy at -80 mV holding potential at 1 uM in presence of GABA EC1 to 1.5 by two-electrode voltage-clamp assay; assay type: cell-based; details: Oocyte, filed as positive allosteric modulator
[4] = molecular target: T2, Gamma-aminobutyric acid receptor subunit alpha-1/alpha-6/beta-3/gamma-2 (Rattus norvegicus); assay: Positive allosteric modulation of rat recombinant GABAA gamma2beta3alpha1-beta3alpha6 receptor expressed in Xenopus laevis oocytes assessed as maximal efficacy at -80 mV holding potential at 10 uM in presence of GABA EC1 to 1.5 by two-electrode voltage-clamp assay; assay type: cell-based; details: Oocyte, filed as positive allosteric modulator
[5] = molecular target: Gamma-aminobutyric acid receptor subunit alpha-1/beta-3/gamma-2 (Rattus norvegicus, UniProt P18508+P62813+P63079); assay: (§1) Positive allosteric modulation of rat recombinant GABAA alpha1beta3alpha1-gamma2beta3 receptor expressed in Xenopus laevis oocytes assessed as increase in GABA-induced current amplitude at -80 mV holding potential under less potent phase in presence of GABA EC1 to 1.5 by two-electrode voltage-clamp assay; assay type: cell-based, Oocyte
Chain of Gamma-aminobutyric acid receptor subunit alpha-1/beta-3/gamma-2 (P18508 whole entry): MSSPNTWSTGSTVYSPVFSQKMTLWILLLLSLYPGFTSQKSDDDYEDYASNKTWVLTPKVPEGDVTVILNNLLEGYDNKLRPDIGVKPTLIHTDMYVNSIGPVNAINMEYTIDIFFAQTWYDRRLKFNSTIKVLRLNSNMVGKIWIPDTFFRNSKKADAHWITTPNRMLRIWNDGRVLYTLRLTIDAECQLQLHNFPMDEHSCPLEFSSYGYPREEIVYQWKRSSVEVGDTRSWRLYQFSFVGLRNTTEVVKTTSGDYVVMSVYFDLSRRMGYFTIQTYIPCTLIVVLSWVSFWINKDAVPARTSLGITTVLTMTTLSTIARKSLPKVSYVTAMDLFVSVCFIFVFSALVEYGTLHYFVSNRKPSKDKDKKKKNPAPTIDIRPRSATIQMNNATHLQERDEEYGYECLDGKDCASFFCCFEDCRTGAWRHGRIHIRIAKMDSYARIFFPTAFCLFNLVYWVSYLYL
Chain of Gamma-aminobutyric acid receptor subunit alpha-1/beta-3/gamma-2 (P62813 whole entry): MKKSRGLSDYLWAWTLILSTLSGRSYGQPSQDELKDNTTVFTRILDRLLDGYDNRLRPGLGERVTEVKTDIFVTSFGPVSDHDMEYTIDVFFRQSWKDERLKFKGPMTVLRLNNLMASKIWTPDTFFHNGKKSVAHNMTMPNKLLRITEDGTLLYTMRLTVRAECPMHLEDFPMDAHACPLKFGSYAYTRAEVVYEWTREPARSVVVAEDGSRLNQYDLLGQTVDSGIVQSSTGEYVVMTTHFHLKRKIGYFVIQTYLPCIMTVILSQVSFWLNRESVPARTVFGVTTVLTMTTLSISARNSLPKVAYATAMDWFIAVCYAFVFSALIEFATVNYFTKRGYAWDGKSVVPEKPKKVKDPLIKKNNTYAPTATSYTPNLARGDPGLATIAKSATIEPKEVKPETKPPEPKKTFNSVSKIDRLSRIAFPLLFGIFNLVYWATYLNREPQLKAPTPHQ
Chain of Gamma-aminobutyric acid receptor subunit alpha-1/beta-3/gamma-2 (P63079 whole entry): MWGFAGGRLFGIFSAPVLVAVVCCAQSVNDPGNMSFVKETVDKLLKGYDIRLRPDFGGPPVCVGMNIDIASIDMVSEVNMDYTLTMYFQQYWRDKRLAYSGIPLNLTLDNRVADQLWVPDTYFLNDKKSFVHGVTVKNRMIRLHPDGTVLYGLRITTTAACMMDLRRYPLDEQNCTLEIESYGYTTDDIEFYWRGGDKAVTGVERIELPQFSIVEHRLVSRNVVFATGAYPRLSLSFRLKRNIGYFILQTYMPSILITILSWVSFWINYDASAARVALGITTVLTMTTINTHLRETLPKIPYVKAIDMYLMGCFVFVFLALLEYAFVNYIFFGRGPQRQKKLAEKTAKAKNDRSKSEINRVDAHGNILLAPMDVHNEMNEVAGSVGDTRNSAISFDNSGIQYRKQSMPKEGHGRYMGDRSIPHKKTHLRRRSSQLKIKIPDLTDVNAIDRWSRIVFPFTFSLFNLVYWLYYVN

[6] = molecular target: T1, Gamma-aminobutyric acid receptor subunit alpha-1/beta-3/gamma-2 (Rattus norvegicus); assay: Positive allosteric modulation of rat recombinant GABAA alpha1beta3alpha1-gamma2beta3 receptor expressed in Xenopus laevis oocytes assessed as maximal current at -80 mV holding potential under less potent phase in presence of GABA EC1 to 1.5 by two-electrode voltage-clamp assay relative to control; assay type: cell-based; details: Oocyte, filed as positive allosteric modulator
[7] = molecular target: T2, Gamma-aminobutyric acid receptor subunit alpha-1/alpha-6/beta-3/gamma-2 (Rattus norvegicus); assay: Positive allosteric modulation of rat recombinant GABAA gamma2beta3alpha1-beta3alpha6 receptor expressed in Xenopus laevis oocytes assessed as maximal current at -80 mV holding potential under more potent phase in presence of GABA EC1 to 1.5 by two-electrode voltage-clamp assay relative to control; assay type: cell-based; details: Oocyte
[8] = molecular target: T1, Gamma-aminobutyric acid receptor subunit alpha-1/beta-3/gamma-2 (Rattus norvegicus); assay: Positive allosteric modulation of rat recombinant GABAA alpha1beta3gamma2 receptor expressed in Xenopus laevis oocytes assessed as maximal efficacy at -80 mV holding potential at 1 uM in presence of GABA EC1 to 1.5 by two-electrode voltage-clamp assay; assay type: cell-based; details: Oocyte
[9] = molecular target: T3, Gamma-aminobutyric acid receptor subunit alpha-6/beta-3/gamma-2 (Rattus norvegicus) (UniProt P18508+P30191+P63079); assay: Positive allosteric modulation of rat recombinant GABAA alpha6beta3gamma2 receptor expressed in Xenopus laevis oocytes assessed as maximal efficacy at -80 mV holding potential at 300 nM in presence of GABA EC1 to 1.5 by two-electrode voltage-clamp assay; assay type: cell-based; details: Oocyte, filed as positive allosteric modulator
[10] = molecular target: T3, Gamma-aminobutyric acid receptor subunit alpha-6/beta-3/gamma-2 (Rattus norvegicus); assay: Positive allosteric modulation of rat recombinant GABAA alpha6beta3alpha6-gamma2beta3 receptor expressed in Xenopus laevis oocytes assessed as maximal efficacy at -80 mV holding potential at 300 nM in presence of GABA EC1 to 1.5 by two-electrode voltage-clamp assay; assay type: cell-based; details: Oocyte, filed as positive allosteric modulator
[11] = molecular target: T1, Gamma-aminobutyric acid receptor subunit alpha-1/beta-3/gamma-2 (Rattus norvegicus); assay: Positive allosteric modulation of rat recombinant GABAA alpha1beta3alpha1-gamma2beta3 receptor expressed in Xenopus laevis oocytes assessed as maximal efficacy at -80 mV holding potential at 300 nM in presence of GABA EC1 to 1.5 by two-electrode voltage-clamp assay; assay type: cell-based; details: Oocyte
[12] = molecular target: T1, Gamma-aminobutyric acid receptor subunit alpha-1/beta-3/gamma-2 (Rattus norvegicus); assay: Positive allosteric modulation of rat recombinant GABAA alpha1beta3alpha1-gamma2beta3 receptor expressed in Xenopus laevis oocytes assessed as maximal efficacy at -80 mV holding potential at 10 uM in presence of GABA EC1 to 1.5 by two-electrode voltage-clamp assay; assay type: cell-based; details: Oocyte, filed as positive allosteric modulator
[13] = molecular target: T1, Gamma-aminobutyric acid receptor subunit alpha-1/beta-3/gamma-2 (Rattus norvegicus); assay: Positive allosteric modulation of rat recombinant GABAA alpha1beta3alpha1-gamma2beta3 receptor expressed in Xenopus laevis oocytes assessed as maximal efficacy at -80 mV holding potential at 1 uM in presence of GABA EC1 to 1.5 by two-electrode voltage-clamp assay; assay type: cell-based; details: Oocyte
[14] = molecular target: T1, Gamma-aminobutyric acid receptor subunit alpha-1/beta-3/gamma-2 (Rattus norvegicus); assay: Positive allosteric modulation of rat recombinant GABAA alpha1beta3alpha1-gamma2beta3 receptor expressed in Xenopus laevis oocytes assessed as maximal efficacy at -80 mV holding potential at 100 nM in presence of GABA EC1 to 1.5 by two-electrode voltage-clamp assay; assay type: cell-based; details: Oocyte
[15] = molecular target: T1, Gamma-aminobutyric acid receptor subunit alpha-1/beta-3/gamma-2 (Rattus norvegicus); assay: Positive allosteric modulation of rat recombinant GABAA alpha1beta3gamma2 receptor expressed in Xenopus laevis oocytes assessed as maximal efficacy at -80 mV holding potential at 300 nM in presence of GABA EC1 to 1.5 by two-electrode voltage-clamp assay; assay type: cell-based; details: Oocyte
[16] = molecular target: T3, Gamma-aminobutyric acid receptor subunit alpha-6/beta-3/gamma-2 (Rattus norvegicus); assay: Positive allosteric modulation of rat recombinant GABAA alpha6beta3alpha6-gamma2beta3 receptor expressed in Xenopus laevis oocytes assessed as maximal efficacy at -80 mV holding potential at 3 nM in presence of GABA EC1 to 1.5 by two-electrode voltage-clamp assay; assay type: cell-based; details: Oocyte
[17] = molecular target: T3, Gamma-aminobutyric acid receptor subunit alpha-6/beta-3/gamma-2 (Rattus norvegicus); assay: Positive allosteric modulation of rat recombinant GABAA alpha6beta3alpha6-gamma2beta3 receptor expressed in Xenopus laevis oocytes assessed as maximal efficacy at -80 mV holding potential at 30 uM in presence of GABA EC1 to 1.5 by two-electrode voltage-clamp assay; assay type: cell-based; details: Oocyte, filed as positive allosteric modulator
[18] = molecular target: Gamma-aminobutyric acid receptor subunit alpha-6/beta-3/gamma-2 (Rattus norvegicus, UniProt P18508+P30191+P63079); assay: as §1, with “alpha6beta3alpha6-gamma2beta3” for “alpha1beta3alpha1-gamma2beta3”; assay type: cell-based, Oocyte
Chain of Gamma-aminobutyric acid receptor subunit alpha-6/beta-3/gamma-2 (P18508 whole entry): as the sequence (P18508 whole entry) above
Chain of Gamma-aminobutyric acid receptor subunit alpha-6/beta-3/gamma-2 (P30191 whole entry): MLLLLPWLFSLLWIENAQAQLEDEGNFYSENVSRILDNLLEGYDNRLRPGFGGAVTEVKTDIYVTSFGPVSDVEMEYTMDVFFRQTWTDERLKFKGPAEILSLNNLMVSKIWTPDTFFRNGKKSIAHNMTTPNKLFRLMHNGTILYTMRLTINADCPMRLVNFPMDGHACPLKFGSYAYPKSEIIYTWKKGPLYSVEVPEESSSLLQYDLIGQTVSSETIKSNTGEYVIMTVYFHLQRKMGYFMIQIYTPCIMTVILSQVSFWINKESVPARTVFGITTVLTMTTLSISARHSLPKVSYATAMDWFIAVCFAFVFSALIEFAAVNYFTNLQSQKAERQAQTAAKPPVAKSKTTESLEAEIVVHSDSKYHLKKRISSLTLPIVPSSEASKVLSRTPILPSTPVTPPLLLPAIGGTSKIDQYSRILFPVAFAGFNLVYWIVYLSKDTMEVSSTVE
Chain of Gamma-aminobutyric acid receptor subunit alpha-6/beta-3/gamma-2 (P63079 whole entry): as the sequence (P63079 whole entry) above

[19] = molecular target: T2, Gamma-aminobutyric acid receptor subunit alpha-1/alpha-6/beta-3/gamma-2 (Rattus norvegicus); assay: Positive allosteric modulation of rat recombinant GABAA alpha6beta3alpha1-gamma2beta3 receptor expressed in Xenopus laevis oocytes assessed as maximal efficacy at -80 mV holding potential at 10 uM in presence of GABA EC1 to 1.5 by two-electrode voltage-clamp assay; assay type: cell-based; details: Oocyte, filed as positive allosteric modulator
[20] = molecular target: T3, Gamma-aminobutyric acid receptor subunit alpha-6/beta-3/gamma-2 (Rattus norvegicus); assay: Positive allosteric modulation of rat recombinant GABAA alpha6beta3alpha6-gamma2beta3 receptor expressed in Xenopus laevis oocytes assessed as maximal efficacy at -80 mV holding potential at 1 nM in presence of GABA EC1 to 1.5 by two-electrode voltage-clamp assay; assay type: cell-based; details: Oocyte
[21] = molecular target: T3, Gamma-aminobutyric acid receptor subunit alpha-6/beta-3/gamma-2 (Rattus norvegicus); assay: Positive allosteric modulation of rat recombinant GABAA alpha6beta3gamma2 receptor expressed in Xenopus laevis oocytes assessed as maximal efficacy at -80 mV holding potential at 30 uM in presence of GABA EC1 to 1.5 by two-electrode voltage-clamp assay; assay type: cell-based; details: Oocyte, filed as positive allosteric modulator
[22] = molecular target: T1, Gamma-aminobutyric acid receptor subunit alpha-1/beta-3/gamma-2 (Rattus norvegicus); assay: Positive allosteric modulation of rat recombinant GABAA alpha1beta3gamma2 receptor expressed in Xenopus laevis oocytes assessed as maximal efficacy at -80 mV holding potential at 30 uM in presence of GABA EC1 to 1.5 by two-electrode voltage-clamp assay; assay type: cell-based; details: Oocyte, filed as positive allosteric modulator
[23] = molecular target: T1, Gamma-aminobutyric acid receptor subunit alpha-1/beta-3/gamma-2 (Rattus norvegicus); assay: Positive allosteric modulation of rat recombinant GABAA alpha1beta3gamma2 receptor expressed in Xenopus laevis oocytes assessed as maximal efficacy at -80 mV holding potential at 10 nM in presence of GABA EC1 to 1.5 by two-electrode voltage-clamp assay; assay type: cell-based; details: Oocyte

## COc1ccc(-n2nc3c4ccc(Br)cc4[nH]cc-3c2=O)cc1
[1]
  Efficacy: 5%
[2]
  Efficacy: 45%
[3]
  Efficacy: 80%
[4]
  Efficacy: 186%
[5]
  EC50: 10 µM
[6]
  %max: 342%
[7]
  %max: 30%
[8]
  Efficacy: 18%
[9]
  Efficacy: 121%
[10]
  Efficacy: 124%
[11]
  Efficacy: 17%
[12]
  Efficacy: 157%
[13]
  Efficacy: 34%
[14]
  Efficacy: 8%
[15]
  Efficacy: 11%
[16]
  Efficacy: 19%
[17]
  Efficacy: 570%
[18]
  EC50: 24 µM
[19]
  Efficacy: 662%
[20]
  Efficacy: 5%
[21]
  Efficacy: 595%
[22]
  Efficacy: 109%
[23]
  Efficacy: 1%
